Source: the supplement of paper PMC10883282

Columns and labels:
Experiment in all cases: relative viability vs DMSO control (72 h) (fraction); higher = more viable cells
A204 = test system: A204
Outline: (§1)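 A 5 µM positive control and 0.1% DMSO vehicle ran alongside sarcoma cell lines seeded in 384-well plates to reach 80–90% confluence. Serially diluted compound, 2.5 µl from source plates of 10 mM to 0.0002 mM, was added after 24 h, and the plates were held 72 h at 37 °C, 5% CO2. Relative viability was worked out from ATPLite readings as percent growth averaged over up to triplicate wells. The values were rescaled so that 1 is full and 0 is none.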

G401 = test system: G401
Outline: as §1

HS729 = test system: HS729
Outline: as §1

HT1080 = test system: HT1080
Outline: as §1

KHOS-NP = test system: KHOS-NP
Outline: as §1

RD-ES = test system: RD-ES
Outline: as §1

SK-ES-1 = test system: SK-ES-1
Outline: as §1

SK-LMS-1 = test system: SK-LMS-1
Outline: as §1

SW684 = test system: SW684
Outline: as §1

SW872 = test system: SW872
Outline: as §1

SW982 = test system: SW982
Outline: as §1

VA-ES-BJ = test system: VA-ES-BJ
Outline: as §1

CCN1C(=O)N(c2c(F)c(OC)cc(OC)c2F)Cc2cnc3[nH]c(CN4CCOCC4)cc3c21 [Pemigatinib]
Details | relative viability
A204, 0.00017 µM | 1.04
A204, 0.00051 µM | 1.02
A204, 0.00152 µM | 0.98
A204, 0.00457 µM | 0.991
A204, 0.01372 µM | 0.843
A204, 0.04115 µM | 0.709
A204, 0.1235 µM | 0.599
A204, 0.3704 µM | 0.565
A204, 1.111 µM | 0.516
A204, 3.333 µM | 0.379
A204, 10 µM | 0.333
G401, 0.00017 µM | 0.978
G401, 0.00051 µM | 0.982
G401, 0.00152 µM | 0.93
G401, 0.00457 µM | 0.8789
G401, 0.01372 µM | 0.746
G401, 0.04115 µM | 0.7
G401, 0.1235 µM | 0.614
G401, 0.3704 µM | 0.585
G401, 1.111 µM | 0.518
G401, 3.333 µM | 0.379
G401, 10 µM | 0.349
HS729, 0.00017 µM | 1
HS729, 0.00051 µM | 0.95
HS729, 0.00152 µM | 0.912
HS729, 0.00457 µM | 0.92
HS729, 0.01372 µM | 0.843
HS729, 0.04115 µM | 0.751
HS729, 0.1235 µM | 0.644
HS729, 0.3704 µM | 0.622
HS729, 1.111 µM | 0.544
HS729, 3.333 µM | 0.484
HS729, 10 µM | 0.444
HT1080, 0.00017 µM | 1.05
HT1080, 0.00051 µM | 1.09
HT1080, 0.00152 µM | 1.06
HT1080, 0.00457 µM | 1.06
HT1080, 0.01372 µM | 1.036
HT1080, 0.04115 µM | 1.1
HT1080, 0.1235 µM | 1.09
HT1080, 0.3704 µM | 1.07
HT1080, 1.111 µM | 1.104
HT1080, 3.333 µM | 0.875
HT1080, 10 µM | 0.807
KHOS-NP, 0.00017 µM | 1.09
KHOS-NP, 0.00051 µM | 1.06
KHOS-NP, 0.00152 µM | 1.088
KHOS-NP, 0.00457 µM | 1.088
KHOS-NP, 0.01372 µM | 1.055
KHOS-NP, 0.04115 µM | 1.065
KHOS-NP, 0.1235 µM | 1.07
KHOS-NP, 0.3704 µM | 1.05
KHOS-NP, 1.111 µM | 1.06
KHOS-NP, 3.333 µM | 1.08
KHOS-NP, 10 µM | 1.05
RD-ES, 0.00017 µM | 0.959
RD-ES, 0.00051 µM | 0.951
RD-ES, 0.00152 µM | 0.953
RD-ES, 0.00457 µM | 0.959
RD-ES, 0.01372 µM | 0.964
RD-ES, 0.04115 µM | 0.955
RD-ES, 0.1235 µM | 0.952
RD-ES, 0.3704 µM | 0.958
RD-ES, 1.111 µM | 0.859
RD-ES, 3.333 µM | 0.7215
RD-ES, 10 µM | 0.54
SK-ES-1, 0.00017 µM | 0.969
SK-ES-1, 0.00051 µM | 0.963
SK-ES-1, 0.00152 µM | 0.989
SK-ES-1, 0.00457 µM | 0.965
SK-ES-1, 0.01372 µM | 0.935
SK-ES-1, 0.04115 µM | 0.972
SK-ES-1, 0.1235 µM | 0.89
SK-ES-1, 0.3704 µM | 0.816
SK-ES-1, 1.111 µM | 0.599
SK-ES-1, 3.333 µM | 0.354
SK-ES-1, 10 µM | 0.2767
SK-LMS-1, 0.00017 µM | 1.05
SK-LMS-1, 0.00051 µM | 1.09
SK-LMS-1, 0.00152 µM | 1.105
SK-LMS-1, 0.00457 µM | 1.08
SK-LMS-1, 0.01372 µM | 1.09
SK-LMS-1, 0.04115 µM | 1.07
SK-LMS-1, 0.1235 µM | 1.07
SK-LMS-1, 0.3704 µM | 1.07
SK-LMS-1, 1.111 µM | 0.9589
SK-LMS-1, 3.333 µM | 0.667
SK-LMS-1, 10 µM | 0.528
SW684, 0.00017 µM | 1.1
SW684, 0.00051 µM | 1.12
SW684, 0.00152 µM | 1.13
SW684, 0.00457 µM | 1.07
SW684, 0.01372 µM | 1.12
SW684, 0.04115 µM | 1.07
SW684, 0.1235 µM | 1.05
SW684, 0.3704 µM | 1.13
SW684, 1.111 µM | 1.1
SW684, 3.333 µM | 0.971
SW684, 10 µM | 0.802
SW872, 0.00017 µM | 1.02
SW872, 0.00051 µM | 1.01
SW872, 0.00152 µM | 1
SW872, 0.00457 µM | 1.02
SW872, 0.01372 µM | 0.999
SW872, 0.04115 µM | 0.999
SW872, 0.1235 µM | 0.964
SW872, 0.3704 µM | 0.975
SW872, 1.111 µM | 0.911
SW872, 3.333 µM | 0.739
SW872, 10 µM | 0.713
SW982, 0.00017 µM | 0.989
SW982, 0.00051 µM | 0.978
SW982, 0.00152 µM | 0.98
SW982, 0.00457 µM | 1
SW982, 0.01372 µM | 0.985
SW982, 0.04115 µM | 0.979
SW982, 0.1235 µM | 0.992
SW982, 0.3704 µM | 0.968
SW982, 1.111 µM | 0.715
SW982, 3.333 µM | 0.511
SW982, 10 µM | 0.438
VA-ES-BJ, 0.00017 µM | 1.02
VA-ES-BJ, 0.00051 µM | 1.03
VA-ES-BJ, 0.00152 µM | 1.023
VA-ES-BJ, 0.00457 µM | 1.011
VA-ES-BJ, 0.01372 µM | 1.04
VA-ES-BJ, 0.04115 µM | 1.05
VA-ES-BJ, 0.1235 µM | 1.036
VA-ES-BJ, 0.3704 µM | 1.04
VA-ES-BJ, 1.111 µM | 0.956
VA-ES-BJ, 3.333 µM | 0.775
VA-ES-BJ, 10 µM | 0.702
